{
  "source": "patent US12377104B1",
  "about": "“Methods for treating a fatty liver disease” (Madrigal Pharmaceuticals, Inc., priority 2024, dated 2025)",
  "system": "adults with biopsy-confirmed NASH",
  "assay": "MAESTRO-NASH: lipids, lipoproteins and lipid particles",
  "format": "in vivo, human",
  "settings": "80 mg; for ApoB, Least Squares Mean % CFB / ApoB, Least Squares Mean % CFB Difference from PBO / LDL-C, Least Squares Mean % CFB / LDL-C, Least Squares Mean % CFB Difference from PBO: baseline LDL-C >100 mg/dL; for Lp(a), LS mean % CFB / Lp(a), LS mean % CFB difference from PBO: baseline Lp(a) >10 nmol/L; for Triglycerides, LS mean % CFB / Triglycerides, LS mean % CFB difference from PBO: baseline triglycerides >150 mg/dL",
  "description": "Within the study, we provided analyses based on an analysis of covariance (ANCOVA) model after having performed single imputation for LDL-C as described in the statistical analysis plan (SAP). The ANCOVA model estimated least-squares means using treatment and baseline LDL-C as covariate.\nTo this end, the Week 24 LDL-C assessment and assessments at any visit in which LDL-C is measured (Weeks 4, 12, 16, 20, 24, 28, 32, 36, 40, 44, 48, and 52) that has been impacted by kit shortage at the prior visit (unavailability of […] (IP) during the 4 weeks preceding the visit due to the COVID-19 pandemic as indicated on the electronic case report form (eCRF)), were considered missing and were imputed from an unaffected assessment at surrounding visits or using data from subjects unaffected by this intercurrent event as described in Section 11.2 of the SAP. In summary, single imputation utilizing adjacent and valid […] measurements were imputed.\nFor missing lipid data that are still missing after the single imputation approach described, those missing lipid data were imputed using the non-missing lipid values (including the singly imputed data) based on missing at random (MAR)-based (MI). When applying the MAR-based […], data were imputed separately by randomized treatment group and baseline stratification factors.",
  "note": "Values joined by “and” are separate entries in the source; they are usually repeats but may differ in a detail not shown here. Identical values can stand only once.",
  "data": [
    {"compound": "CC(C)c1cc(Oc2c(Cl)cc(-n3nc(C#N)c(=O)[nH]c3=O)cc2Cl)n[nH]c1=O", "note": "[Resmetirom, 2-(3,5-dichloro-4-((5-isopropyl-6-oxo-1,6-dihydropyridazin-3-yl)oxy)phenyl)-3,5-dioxo-2,3,4,5-tetrahydro-1,2,4-triazine-6-carbonitrile]", "values": [
      {"measurement": "Apolipoprotein B level, difference from placebo", "setting": "wk 24", "result": "−17.2", "unit": "percentage points"},
      {"measurement": "Apolipoprotein B level, least-squares mean percent change from baseline", "setting": "wk 24", "result": "−16.8 ± 1.3", "unit": "%"},
      {"measurement": "LDL cholesterol level, difference from placebo", "setting": "wk 24", "result": "−13.7", "unit": "percentage points"},
      {"measurement": "LDL cholesterol level, least-squares mean percent change from baseline", "setting": "wk 24", "result": "−13.6% and −13.6 ± 1.7%"},
      {"measurement": "Lipoprotein(a) level, difference from placebo", "setting": "wk 24", "result": "−29.5", "unit": "percentage points"},
      {"measurement": "Triglyceride level, difference from placebo", "setting": "wk 24", "result": "−20.1", "unit": "percentage points"},
      {"measurement": "Lipoprotein(a) level, least-squares mean percent change from baseline", "setting": "wk 24, baseline lipoprotein(a) >10 nmol per liter", "result": "−30.4 ± 3.8", "unit": "%"},
      {"measurement": "Triglyceride level, least-squares mean percent change from baseline", "setting": "wk 24, baseline triglyceride >150 mg per deciliter", "result": "−22.7 ± 4.0", "unit": "%"},
      {"measurement": "ApoB, LS mean % CFB", "setting": "Week 24", "result": "−16.8", "unit": "%"},
      {"measurement": "ApoB, LS mean % CFB difference from PBO", "setting": "Week 24", "result": "−17.2", "unit": "%"},
      {"measurement": "ApoCIII, Least Squares Mean % CFB", "setting": "Week 24", "result": "−10.6", "unit": "%"},
      {"measurement": "ApoCIII, Least Squares Mean % CFB Difference from PBO", "setting": "Week 24", "result": "−18.7", "unit": "%"},
      {"measurement": "HDL-C, Least Squares Mean % CFB", "setting": "Week 24", "result": 2.7, "unit": "%"},
      {"measurement": "HDL-C, Least Squares Mean % CFB Difference from PBO", "setting": "Week 24", "result": 0.98, "unit": "%"},
      {"measurement": "LDL-C, LS mean % CFB", "setting": "Week 24", "result": "−13.6", "unit": "%"},
      {"measurement": "LDL-C, LS mean % CFB difference from PBO", "setting": "Week 24", "result": "−13.7", "unit": "%"},
      {"measurement": "Non-HDL-C, Least Squares Mean % CFB", "setting": "Week 24", "result": "−15.2", "unit": "%"},
      {"measurement": "Non-HDL-C, Least Squares Mean % CFB Difference from PBO", "setting": "Week 24", "result": "−15.4", "unit": "%"},
      {"measurement": "ApoB, Least Squares Mean % CFB", "setting": "Week 24", "result": "−21.9", "unit": "%"},
      {"measurement": "ApoB, Least Squares Mean % CFB Difference from PBO", "setting": "Week 24", "result": "−18.1", "unit": "%"},
      {"measurement": "LDL-C, Least Squares Mean % CFB", "setting": "Week 24", "result": "−21.3", "unit": "%"},
      {"measurement": "LDL-C, Least Squares Mean % CFB Difference from PBO", "setting": "Week 24", "result": "−15.4", "unit": "%"},
      {"measurement": "ApoCIII, Least Squares Mean % CFB", "setting": "Week 52", "result": "−10.0", "unit": "%"},
      {"measurement": "ApoCIII, Least Squares Mean % CFB Difference from PBO", "setting": "Week 52", "result": "−19.8", "unit": "%"},
      {"measurement": "HDL particle size, Least Squares Mean % CFB", "setting": "Week 52", "result": 0.90, "unit": "%"},
      {"measurement": "HDL particle size, Least Squares Mean % CFB Difference from PBO", "setting": "Week 52", "result": 0.60, "unit": "%"},
      {"measurement": "HDL particles, Least Squares Mean % CFB", "setting": "Week 52", "result": 5.2, "unit": "%"},
      {"measurement": "HDL particles, Least Squares Mean % CFB Difference from PBO", "setting": "Week 52", "result": 3.6, "unit": "%"},
      {"measurement": "HDL-C, Least Squares Mean % CFB", "setting": "Week 52", "result": 4.7, "unit": "%"},
      {"measurement": "HDL-C, Least Squares Mean % CFB Difference from PBO", "setting": "Week 52", "result": 2.1, "unit": "%"},
      {"measurement": "LDL particle size, Least Squares Mean % CFB", "setting": "Week 52", "result": "−0.32", "unit": "%"},
      {"measurement": "LDL particle size, Least Squares Mean % CFB Difference from PBO", "setting": "Week 52", "result": "−0.36", "unit": "%"},
      {"measurement": "LDL particles, Least Squares Mean % CFB", "setting": "Week 52", "result": "−16.8", "unit": "%"},
      {"measurement": "LDL particles, Least Squares Mean % CFB Difference from PBO", "setting": "Week 52", "result": "−16.1", "unit": "%"},
      {"measurement": "Large HDL particles, Least Squares Mean % CFB", "setting": "Week 52", "result": 12.3, "unit": "%"},
      {"measurement": "Large HDL particles, Least Squares Mean % CFB Difference from PBO", "setting": "Week 52", "result": 0.06, "unit": "%"},
      {"measurement": "Large LDL particles, Least Squares Mean % CFB", "setting": "Week 52", "result": 47.8, "unit": "%"},
      {"measurement": "Large LDL particles, Least Squares Mean % CFB Difference from PBO", "setting": "Week 52", "result": "−38.6", "unit": "%"},
      {"measurement": "Large VLDL and chylomicron particles, Least Squares Mean % CFB", "setting": "Week 52", "result": "−5.7", "unit": "%"},
      {"measurement": "Large VLDL and chylomicron particles, Least Squares Mean % CFB Difference from PBO", "setting": "Week 52", "result": "−16.8", "unit": "%"},
      {"measurement": "Medium HDL particles, Least Squares Mean % CFB", "setting": "Week 52", "result": 88.2, "unit": "%"},
      {"measurement": "Medium HDL particles, Least Squares Mean % CFB Difference from PBO", "setting": "Week 52", "result": 23.1, "unit": "%"},
      {"measurement": "Medium VLDL particles, Least Squares Mean % CFB", "setting": "Week 52", "result": "−18.7", "unit": "%"},
      {"measurement": "Medium VLDL particles, Least Squares Mean % CFB Difference from PBO", "setting": "Week 52", "result": "−134.5", "unit": "%"},
      {"measurement": "Non-HDL-C, Least Squares Mean % CFB", "setting": "Week 52", "result": "−15.7", "unit": "%"},
      {"measurement": "Non-HDL-C, Least Squares Mean % CFB Difference from PBO", "setting": "Week 52", "result": "−15.3", "unit": "%"},
      {"measurement": "Small LDL particles, Least Squares Mean % CFB", "setting": "Week 52", "result": "−3.3", "unit": "%"},
      {"measurement": "Small LDL particles, Least Squares Mean % CFB Difference from PBO", "setting": "Week 52", "result": "−25.0", "unit": "%"},
      {"measurement": "Small VLDL particles, Least Squares Mean % CFB", "setting": "Week 52", "result": 62.9, "unit": "%"},
      {"measurement": "Small VLDL particles, Least Squares Mean % CFB Difference from PBO", "setting": "Week 52", "result": -21.3, "unit": "%"},
      {"measurement": "VLDL and chylomicron particles, Least Squares Mean % CFB", "setting": "Week 52", "result": "−11.2", "unit": "%"},
      {"measurement": "VLDL and chylomicron particles, Least Squares Mean % CFB Difference from PBO", "setting": "Week 52", "result": "−19.4", "unit": "%"},
      {"measurement": "VLDL and chylomicron triglycerides, Least Squares Mean % CFB", "setting": "Week 52", "result": "−14.7", "unit": "%"},
      {"measurement": "VLDL and chylomicron triglycerides, Least Squares Mean % CFB Difference from PBO", "setting": "Week 52", "result": "−19.6", "unit": "%"},
      {"measurement": "VLDL particle size, Least Squares Mean % CFB", "setting": "Week 52", "result": 1.9, "unit": "%"},
      {"measurement": "VLDL particle size, Least Squares Mean % CFB Difference from PBO", "setting": "Week 52", "result": "−0.05", "unit": "%"},
      {"measurement": "ApoB, Least Squares Mean % CFB", "setting": "Week 52", "result": "−25.0", "unit": "%"},
      {"measurement": "ApoB, Least Squares Mean % CFB Difference from PBO", "setting": "Week 52", "result": "−18.5", "unit": "%"},
      {"measurement": "LDL-C, Least Squares Mean % CFB", "setting": "Week 52", "result": "−25.3", "unit": "%"},
      {"measurement": "LDL-C, Least Squares Mean % CFB Difference from PBO", "setting": "Week 52", "result": "−15.7", "unit": "%"},
      {"measurement": "Lp(a), LS mean % CFB", "setting": "week 24", "result": 30.4, "unit": "%"},
      {"measurement": "Lp(a), LS mean % CFB difference from PBO", "setting": "week 24", "result": -29.5, "unit": "%"},
      {"measurement": "Triglycerides, LS mean % CFB", "setting": "week 24", "result": -22.7, "unit": "%"},
      {"measurement": "Triglycerides, LS mean % CFB difference from PBO", "setting": "week 24", "result": "−20.1", "unit": "%"},
      {"measurement": "ApoB, LS mean % CFB", "setting": "week 52", "result": -16.2, "unit": "%"},
      {"measurement": "ApoB, LS mean % CFB difference from PBO", "setting": "week 52", "result": "−16.8", "unit": "%"},
      {"measurement": "LDL-C, LS mean % CFB", "setting": "week 52", "result": -13.7, "unit": "%"},
      {"measurement": "LDL-C, LS mean % CFB difference from PBO", "setting": "week 52", "result": "−13.3", "unit": "%"},
      {"measurement": "Lp(a), LS mean % CFB", "setting": "week 52", "result": "−34.0", "unit": "%"},
      {"measurement": "Lp(a), LS mean % CFB difference from PBO", "setting": "week 52", "result": "−29.5", "unit": "%"},
      {"measurement": "Triglycerides, LS mean % CFB", "setting": "week 52", "result": "−22.5", "unit": "%"},
      {"measurement": "Triglycerides, LS mean % CFB difference from PBO", "setting": "week 52", "result": "−19.0", "unit": "%"}
    ]}
  ]
}
